According to ChEMBL document CHEMBL4495565, “Cytopathic SARS-Cov2 screening on VERO-E6 cells in a large repurposing effort” (2020):
Values joined by “and” are separate entries in the source; they are usually repeats but may differ in a detail not shown here. Equal values may be shown once. Where a name gives a salt, the structure may show the parent alone. Peptide text beside a SMILES is read from it. * marks the point of attachment. Cbz = O=C(OCc1ccccc1)*

Legend:
SARS-CoV-2 [1] = conditions: Chlorocebus sabaeus; Vero C1008; 10 uM
SARS-CoV-2 [2] = assay: microbe, parasite or virus in culture; assay type: functional, organism-based, Chlorocebus sabaeus, Vero C1008
Vero C1008 = conditions: chlorocebus sabaeus, vero c1008, 48 h
in vitro [3] = conditions: chlorocebus sabaeus, VERO-E6 cells (Vero C1008), uninfected, CC50
in vitro [4] = conditions: chlorocebus sabaeus, VERO-E6 cells, Selectivity index
[5] = Severe acute respiratory syndrome coronavirus 2, Vero C1008, 48 h

Row | Compound | inhibition (SARS-CoV-2 [1]) | CC50 (Vero C1008) | also measured
1 | CYANOCOBALAMIN | 0.04% | – | –
2 | COLISTIMETHATE SODIUM | -0.25% | – | –
3 | CNCc1ccc(-c2cc(-c3nc(-c4ccc(S(=O)(=O)C(C)C)cc4)cnc3N)on2)cc1 [BERZOSERTIB] | – | 10 µM and > 33 µM | IC50 (SARS-CoV-2 [2]; vero c1008): 3.54 µM
4 | PHENYLMERCURIC ACETATE | -0.23% | – | –
5 | COc1ccc(-c2cc3c(C)nc(N)nc3n([C@H]3CC[C@H](OCCO)CC3)c2=O)cn1 [PF-04691502] | – | 0.32 µM and 0.09 µM | IC50 (SARS-CoV-2 [2]; [5]): 0.55 µM; IC50 (SARS-CoV-2 [2]; vero c1008): 0.8 µM
6 | Cc1cc(Nc2cc(N3CCN(C)CC3)nc(Sc3ccc(NC(=O)C4CC4)cc3)n2)n[nH]1 | 0.28% | – | –
7 | Nc1nc2nn[nH]c2c(=O)[nH]1 [8-AZAGUANINE] | – | 11.2 µM | IC50 (SARS-CoV-2 [2]; vero c1008): 3.72 µM and 10.3 µM; CC50 at 48 h (in vitro [3]): 10.4 µM
8 | CC(=O)[C@]1(O)Cc2c(O)c3c(c(O)c2[C@@H](O[C@H]2C[C@H](N)[C@H](O)[C@H](C)O2)C1)C(=O)c1ccccc1C3=O [IDARUBICIN HYDROCHLORIDE] | – | 0.41 µM | –
9 | VITAMIN E | 0.25% (2×) and -0.04% (2×) | – | –
10 | AUROTHIOGLUCOSE | -0.05% | – | –
11 | CETRIMONIUM BROMIDE | 0.3% | – | –
12 | ACRIFLAVINE HYDROCHLORIDE | -0.35% | – | –
13 | COc1cc2c(NC3CCN(C4CCCCC4)CC3)nc(N3CCCN(C(C)C)CC3)nc2cc1OCCCN1CCCCC1 | – | 18.6 µM | IC50 (SARS-CoV-2 [2]; vero c1008): > 33 µM; CC50 at 48 h (in vitro [3]): > 33 µM
14 | VANADATE ION | 0.02% | – | –
15 | Sodium orthovanadate | 0.13% | – | –
16 | CC(C)(C)c1cc(C=C(C#N)C#N)cc(C(C)(C)C)c1O [TYRPHOSTIN A9] | – | 7.99 µM and 1.27 µM | IC50 (SARS-CoV-2 [2]; vero c1008): > 33 µM

Row | Compound | inhibition (SARS-CoV-2 [1]) | CC50 (Vero C1008) | also measured
17 | GADOTERIDOL | -0.08% | – | –
18 | ESCIN | -0.23% | – | –
19 | O=C(c1c2ccccc2cc2ccccc12)N1CCC(N2CCC[C@@H](C(=O)N3CCOCC3)C2)CC1 | – | 10.9 µM | CC50 at 48 h (in vitro [3]): 10.2 µM
20 | CC(=O)[C@]1(O)Cc2c(O)c3c(c(O)c2[C@@H](O[C@H]2C[C@H](N)[C@H](O)[C@H](C)O2)C1)C(=O)c1ccccc1C3=O [IDARUBICIN] | – | 0.2 µM | –
21 | hemin | -0.12% | – | –
22 | MERBROMIN | 0% | – | –
23 | Auranofin | -0.39% | – | –
24 | TOCOFERSOLAN | 41.8% | – | –
25 | CC(C)C[C@@H](C=O)NC(=O)[C@H](CC(C)C)NC(=O)[C@H](CC(C)C)NC(=O)OCc1ccccc1 [MG-132] (Cbz-Leu-Leu-Leu-aldehyde) | – | 3.04 µM | IC50 (SARS-CoV-2 [2]; vero c1008): 0.99 µM; CC50 at 48 h (in vitro [3]): 2.9 µM
26 | NYSTATIN | 0.08% | – | –
27 | CC(=O)OC[C@]12CCC(C)=C[C@H]1O[C@@H]1[C@H](O)[C@@H](OC(C)=O)[C@@]2(C)[C@@]12CO2 | -0.2% | – | –
28 | CNC(=O)c1cc(Oc2ccc(NC(=O)Nc3ccc(Cl)c(C(F)(F)F)c3)c(F)c2)ccn1 [REGORAFENIB] | – | > 33 µM and 8.31 µM | IC50 (SARS-CoV-2 [2]; [5]): > 33 µM; IC50 (SARS-CoV-2 [2]; vero c1008): 24.9 µM
29 | N[C@H]1CC[C@H](N[C@@H]2C[C@H]2c2ccccc2)CC1 | – | – | IC50 (SARS-CoV-2 [2]; [5]): > 33 µM; CC50 at 48 h (in vitro [3]): > 33 µM; selectivity ratio (in vitro [4]): 1
30 | Vitamin B12 | 0.12% | – | –
31 | CC[C@H](CC#N)OC(=O)N[C@@H](C)c1cccc(NC(=O)Nc2ccc(-c3cnco3)c(OC)c2)c1 [AVN-944] | – | – | IC50 (SARS-CoV-2 [2]; [5]): 1.14 µM; CC50 at 48 h (in vitro [3]): 0.76 µM; selectivity ratio (in vitro [4]): 0.67
